In brackets after ≈: the same amount, converted by molar mass.
Assays:
[1] = test system: N. gonorrhoeae strain NCCP11945; assay: Growth inhibition screen on GC solid media containing 1 mM candidate; format: cell-based, Neisseria gonorrhoeae; details: 1 mM candidate in GC agar media; Yes = strain NCCP11945 did not grow
Protocol: (§1) To find potential candidates, 37 organic acids, esters, and salts were tested in a two-tiered screening process. These candidates were chosen based on the carbon chain lengths of the fatty acids, the presence or absence of saturation, and modifications to represent a diverse selection of organic acid candidates. The first screen aimed to determine the ability of each compound to inhibit the growth of N. gonorrhoeae strain NCCP11945 at 1 mM in GC solid media (Table 1). This strain was chosen due to its relatively recent isolation, its antibiotic resistance profile, and the availability of a complete genome sequence. Those candidates able to inhibit the growth of N. gonorrhoeae strain NCCP11945 were investigated in a second assay. The second assay tested the ability of each compound to cause at least a 4-log reduction in viable bacteria at 1 mM with a 2-min exposure time (Table 1).
(§2) The well-characterized N. gonorrhoeae NCCP11945 strain ([36]) was used in the screening stage. Eight isolates obtained from Public Health England, representing circulating isolates from various European locations, were used in the log reduction assays. All isolates were cultured for 24 h prior to testing by plating on GC solid medium (Oxoid Limited, Hampshire, United Kingdom) with Kellogg supplements and incubation at 37°C and 5% CO2 ([37]).

[2] = test system: N. gonorrhoeae strain NCCP11945; assay: Log reduction assay in GC broth, 2-min exposure; format: cell-based, Neisseria gonorrhoeae
Protocol: as §1
(§3) Log reductions were done as described by Bergsson and coworkers ([18]). Briefly, cells were suspended in GC broth (18 g/liter GC base [Oxoid, Limited] with added defined supplements) to an optical density at 520 nm of 0.3, which is approximately equivalent to 10^7 to 10^8 cells per ml ([38]). […] The contents of the tubes were then mixed at room temperature for 2 min and immediately diluted in a 10-fold dilution series to 10^−4. The dilutions were plated by spreading 10 µl on a quarter of a plate; a 100-µl neat solution was also plated. Plates were then incubated at 37°C for 48 h, with all samples plated in duplicate. […] Additional testing at lower concentrations was also done on the eight clinical isolates of European origin.

[3] = test system: nine gonococcal isolates (strain NCCP11945 and eight isolates from Public Health England); assay: Minimum bactericidal concentration by log reduction against nine gonococcal isolates; format: cell-based, Neisseria gonorrhoeae
Text: The seven candidates were further tested against nine gonococcal isolates, including strain NCCP11945 and eight isolates from Public Health England, to find their minimal bactericidal concentration (MBC). This was defined as the lowest concentration tested to give an average 4-log10 reduction in bacterial count after a 2-min exposure. […] Any candidate that killed all gonococcal cells in the cell suspension was given a log reduction score of six.
as §2, §3

[4] = test system: gonococcal cells (isolate NCCP 11945); assay: Log reduction in artificial tear fluid with or without calcium chloride; format: cell-based, Neisseria gonorrhoeae; details: calcium 1 mM; Fig. 2
Protocol: The antigonococcal properties of the seven selected fatty acids were tested in artificial tear fluid, which contained calcium chloride. The addition of 1 mM lauric acid, tridecanoic acid, or sodium dodecanoate gave no reduction in bacterial cell number after exposure, in contrast to the results seen when they were tested in culture medium (Fig. 2). […] This was most likely due to the negative effect of calcium on the aqueous solubility of these candidates.
Artificial tear fluid was made as described by Mirejovsky and others ([39]) with or without calcium chloride. […] As with the previous log reductions, 10^7 gonococcal cells (isolate NCCP 11945) were suspended in GC broth. The cell suspension was centrifuged to remove the culture medium, and the bacteria were resuspended in the tear fluid. This was then added to the concentrated organic acid candidates. The cells were then enumerated again after 2 min of exposure to estimate any reduction in cell number due to the exposure to the organic acid.

[5] = test system: bovine cornea; assay: Bovine corneal opacity and permeability (BCOP) test
Protocol: Bovine eyes were collected from a local slaughter house (ABP, Guildford, Surrey, United Kingdom) and were transported in cold saline solution for testing at the laboratory. Each eye was first visually examined for signs of damage before use. The test was conducted as detailed by Abdelkader and coworkers ([21]). The exposure time of the test substances was 30 s. The selected bactericidal compounds were tested at 1 mM in saline solution, with a corresponding vehicle control (1% ethanol–saline solution) also performed. […] The test area of the cornea was then washed with 10 ml saline solution. Corneal damage to the test area was assessed by fluorescein staining and examination under a cobalt blue filter. Pathological scoring based on opacity, epithelial integrity, and epithelial detachment was done in accordance with previous publications ([19]). Each of the seven lead candidates was tested in triplicate, and each test was performed on a separate day using a different batch of eyeballs. Corneal histology was done as outlined by Abdelkader and coworkers ([21]) by evaluating the damage to the epithelial layer and stroma of the cornea after hematoxylin and eosin staining.

[6] = test system: bovine RBCs; assay: Red blood cell (RBC) lysis assay; format: cell-based
Protocol: Whole bovine blood was obtained from a local slaughter house (ABP), adding 90 ml blood to 10 ml 110 mM trisodium citrate anticoagulant. RBCs were isolated the same day. The RBCs were washed by three repeats of centrifugation (1,500 × g for 10 min) and resuspension in phosphate-buffered saline (PBS) with 10 mM glucose (PBSG). Testing was done following the guidelines of the European Union Reference Laboratory for alternatives to animal testing (EURL-ECVAM) ([22]). The organic acids were solubilized in dimethyl sulfoxide (DMSO) and diluted to a maximum DMSO concentration of 10%. In a 2-ml centrifuge tube, 750 µl of the sample was added to 250 µl RBCs. Controls used in the assay were a complete lysis control (deionized water) and a fragility control (PBSG–10% DMSO). Samples were shaken at room temperature for 1 h and then centrifuged at 14,000 × g for 2 min. An aliquot of 750 µl of the supernatant was taken and its absorbance at 451 nm measured.

[7] = test system: N. gonorrhoeae on human corneal epithelial cells; assay: LIVE/DEAD staining of gonococcus-infected human corneal epithelial cells; format: cell-based, Neisseria gonorrhoeae; details: 1 mM
Protocol: The LIVE/DEAD BacLight bacterial viability kit for microscopy (Life Technologies, Inc.) was used according to manufacturer’s instructions. After the course of infection, the culture wells were washed five times with sterile 0.85% NaCl to remove nonadhered bacterial cells. Stain was added to each well for 15 min at room temperature before washing in 0.85% saline solution was performed. Glass coverslips were mounted in BacLight mounting oil and visualized on a Nikon Eclipse i80 fluorescence microscope (Nikon United Kingdom) as detailed above.

[8] = test system: N. gonorrhoeae; design: method as in PMID 10543766; details: cited from earlier work

Mean cumulative BCOP score ([5]; 1 mM in saline solution, 30 s exposure, triplicate): lower than 0.5 | Fluorescein staining of cornea ([5]; 1 mM, around rubber application ring): any sign of fluorescein staining | H50 concentration relative to MBC [6]: greater than their MBCs
SMILES: CCCCCCCCCC(=O)OCC(O)CO (stereo not shown) [Monocaprin]
Growth inhibition [1]: Yes | Log reduction at 1 mM: at least a 4-log reduction in viable bacteria (Yes/No) [2]: Yes | Log reduction at 1 mM (calculated log reduction in viable bacteria) ([2]; maximum score 6 = all cells killed): > 6 log10 | Killing of all gonococcal cells for all isolates ([3]; 1 mM, 2 min): killed all gonococcal cells for all isolates | MBC ([3]; lowest concentration giving mean log reduction above 4 from a 2-min exposure): 500 µM (≈ 123 µg/mL) | Effect of calcium in artificial tear fluid on antimicrobial effect [4]: unaffected | BCOP irritancy classification ([5]; candidates 1 mM in saline, controls 0.5 M NaOH, 100% acetone, 30 s exposure): nonirritants | LIVE/DEAD staining of bacteria on infected corneal cells [7]: only dead bacterial cells | Viable bacteria recovered from treated wells [7]: No viable bacteria were recovered | Antigonococcal properties [8]: strong antigonococcal properties
